Common to all, as to assay: relative viability (nuclei count vs DMSO), 5 days (fraction); higher = more cells survive
Compound in the assay “KIN001-266 + Phenformin”: CCN1CCC(CC1)N2C=C(N=N2)CNC3=CC4=C(C(=CN=C4C(=C3)Cl)C#N)NC5=CC(=C(C=C5)F)Cl [KIN001-266] + N=C(N)NC(=N)NCCc1ccccc1 [Phenformin] (partner 250 µM)
Put shortly: (§1)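 Lung cancer cell lines in 1536-well plates got either a single drug or a fixed anchor-drug dose together with five library-drug doses (not always all listed) in √10 steps, by pin tool, on the day after seeding. Nuclei were counted after 5 days, and relative viability is the treated-to-vehicle ratio of nuclei counts. Values are medians of duplicate plates.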

Compound in the assay “KIN001-266 + Palbociclib”: CCN1CCC(CC1)N2C=C(N=N2)CNC3=CC4=C(C(=CN=C4C(=C3)Cl)C#N)NC5=CC(=C(C=C5)F)Cl [KIN001-266] + CC(=O)c1c(C)c2cnc(Nc3ccc(N4CCNCC4)cn3)nc2n(C2CCCC2)c1=O [Palbociclib] (partner 0.5 µM)
An outline of the steps: as §1

Compound in the assay “KIN001-266 + Pictilisib”: CCN1CCC(CC1)N2C=C(N=N2)CNC3=CC4=C(C(=CN=C4C(=C3)Cl)C#N)NC5=CC(=C(C=C5)F)Cl [KIN001-266] + CS(=O)(=O)N1CCN(Cc2cc3nc(-c4cccc5[nH]ncc45)nc(N4CCOCC4)c3s2)CC1 [Pictilisib] (partner 1 µM)
Put shortly: as §1

Compound in the assay “KIN001-266 + Decitabine”: CCN1CCC(CC1)N2C=C(N=N2)CNC3=CC4=C(C(=CN=C4C(=C3)Cl)C#N)NC5=CC(=C(C=C5)F)Cl [KIN001-266] + Nc1ncn([C@H]2C[C@H](O)[C@@H](CO)O2)c(=O)n1 [Decitabine] (partner 2 µM)
An outline of the steps:
as §1

NCI-H661: the relative viability was found to be 0.297 with KIN001-266 + Phenformin (first compound 0.08 µM); 0.278 with KIN001-266 + Phenformin (first compound 0.253 µM); 0.284 in the assay with KIN001-266 + Phenformin (first compound 0.8 µM); 0.263 with KIN001-266 + Phenformin (first compound 2.53 µM); 0.258 in the assay with KIN001-266 + Phenformin (first compound 8 µM); 0.424 with KIN001-266 + Palbociclib (first compound 0.08 µM). Further, the relative viability came out at 0.413 with KIN001-266 + Palbociclib (first compound 0.253 µM); 0.403 in the assay with KIN001-266 + Palbociclib (first compound 0.8 µM); 0.372 with KIN001-266 + Palbociclib (first compound 2.53 µM); 0.349 with KIN001-266 + Palbociclib (first compound 8 µM); 0.43 with KIN001-266 + Pictilisib (first compound 0.08 µM); 0.412 with KIN001-266 + Pictilisib (first compound 0.253 µM). The relative viability worked out at 0.433 in the assay with KIN001-266 + Pictilisib (first compound 0.8 µM); 0.363 with KIN001-266 + Pictilisib (first compound 2.53 µM); 0.568 with KIN001-266 + Pictilisib (first compound 8 µM); 0.628 with KIN001-266 + Decitabine (first compound 0.08 µM); 0.554 in the assay with KIN001-266 + Decitabine (first compound 0.253 µM); 0.506 with KIN001-266 + Decitabine (first compound 0.8 µM). The relative viability with KIN001-266 + Decitabine (first compound 2.53 µM) came out at 0.509; in the assay with KIN001-266 + Decitabine (first compound 8 µM), 0.504.
LK-2: the relative viability is 0.538 with KIN001-266 + Phenformin (first compound 0.08 µM); 0.352 with KIN001-266 + Phenformin (first compound 0.253 µM); 0.342 with KIN001-266 + Phenformin (first compound 0.8 µM); 0.281 with KIN001-266 + Phenformin (first compound 2.53 µM); 0.288 with KIN001-266 + Phenformin (first compound 8 µM); 0.794 with KIN001-266 + Palbociclib (first compound 0.08 µM). In addition, the relative viability with KIN001-266 + Palbociclib (first compound 0.253 µM) was 0.691; with KIN001-266 + Palbociclib (first compound 0.8 µM), 0.797; in the assay with KIN001-266 + Palbociclib (first compound 2.53 µM) it was 0.589; in the assay with KIN001-266 + Palbociclib (first compound 8 µM), 0.67; with KIN001-266 + Pictilisib (first compound 0.08 µM), 0.563; in the assay with KIN001-266 + Pictilisib (first compound 0.8 µM), 0.537. Besides, the relative viability with KIN001-266 + Pictilisib (first compound 8 µM) turned out to be 0.551; in the assay with KIN001-266 + Decitabine (first compound 0.08 µM), 0.384; with KIN001-266 + Decitabine (first compound 0.253 µM), 0.298; in the assay with KIN001-266 + Decitabine (first compound 0.8 µM) it was 0.309; with KIN001-266 + Decitabine (first compound 2.53 µM), 0.318; in the assay with KIN001-266 + Decitabine (first compound 8 µM) it was 0.41.
Consider NCI-H1993, for which the relative viability with KIN001-266 + Phenformin (first compound 0.08 µM) amounted to 0.505; with KIN001-266 + Phenformin (first compound 0.253 µM), 0.493; in the assay with KIN001-266 + Phenformin (first compound 0.8 µM) it was 0.506; with KIN001-266 + Phenformin (first compound 2.53 µM), 0.49; in the assay with KIN001-266 + Phenformin (first compound 8 µM) it was 0.575; with KIN001-266 + Palbociclib (first compound 0.08 µM), 0.68. Also, the relative viability is 0.653 with KIN001-266 + Palbociclib (first compound 0.253 µM); 0.66 with KIN001-266 + Palbociclib (first compound 0.8 µM); 0.688 with KIN001-266 + Palbociclib (first compound 2.53 µM); 0.58 with KIN001-266 + Palbociclib (first compound 8 µM); 0.872 with KIN001-266 + Pictilisib (first compound 0.08 µM); 0.691 in the assay with KIN001-266 + Pictilisib (first compound 0.253 µM). Also, the relative viability turned out to be 0.967 in the assay with KIN001-266 + Pictilisib (first compound 0.8 µM); 0.837 with KIN001-266 + Pictilisib (first compound 2.53 µM); 0.976 with KIN001-266 + Pictilisib (first compound 8 µM); 0.66 with KIN001-266 + Decitabine (first compound 0.08 µM); 0.563 with KIN001-266 + Decitabine (first compound 0.253 µM); 0.415 with KIN001-266 + Decitabine (first compound 0.8 µM). Besides, the relative viability in the assay with KIN001-266 + Decitabine (first compound 2.53 µM) is 0.579; with KIN001-266 + Decitabine (first compound 8 µM), 0.607.
For NCI-H838, the relative viability was determined as 0.668 in the assay with KIN001-266 + Phenformin (first compound 0.08 µM); 0.624 in the assay with KIN001-266 + Phenformin (first compound 0.253 µM); 0.595 with KIN001-266 + Phenformin (first compound 0.8 µM); 0.574 with KIN001-266 + Phenformin (first compound 2.53 µM); 0.427 with KIN001-266 + Phenformin (first compound 8 µM); 0.228 with KIN001-266 + Palbociclib (first compound 0.08 µM). Further, the relative viability is 0.207 with KIN001-266 + Palbociclib (first compound 0.253 µM); 0.212 with KIN001-266 + Palbociclib (first compound 0.8 µM); 0.164 in the assay with KIN001-266 + Palbociclib (first compound 2.53 µM); 0.22 in the assay with KIN001-266 + Palbociclib (first compound 8 µM); 0.521 with KIN001-266 + Pictilisib (first compound 0.08 µM); 0.423 with KIN001-266 + Pictilisib (first compound 0.253 µM). In addition, the relative viability is 0.515 with KIN001-266 + Pictilisib (first compound 0.8 µM); 0.304 with KIN001-266 + Pictilisib (first compound 2.53 µM); 0.238 with KIN001-266 + Pictilisib (first compound 8 µM); 0.476 with KIN001-266 + Decitabine (first compound 0.08 µM); 0.488 with KIN001-266 + Decitabine (first compound 0.253 µM); 0.454 with KIN001-266 + Decitabine (first compound 0.8 µM). Besides, the values for the relative viability with KIN001-266 + Decitabine (first compound 2.53 µM) and with KIN001-266 + Decitabine (first compound 8 µM) were 0.423 and 0.371, respectively.

For the origin of these results see the supplement of paper PMC10307832.
